How the values were obtained:
MK-801 pre-treated rats = experiment: Reduction of MK-801-induced hyper-locomotion; assay type: in vivo; settings: Rattus norvegicus; MK-801 0.7 mg/kg i.p. 90 minutes before test compound; locomotor activity between 45 and 60 minutes after administration; 0-100 μmol/kg s.c.
Text: Reduction of MK-801-Induced Hyper-Locomotion Another animal model of antipsychotic activity is based on administration of the glutamate antagonist MK-801. Glutamate antagonists (i.e. NMDA antagonists), can induce psychoses in man (see Psychopharmacology, 4th Generation of progress Chapter 101, p. 1205 and 1207) and induce behavioural aberrations in animals. Thus, the ability of a drug to affect schizophrenia and psychotic states can be measured using behavioural models based on experimentally-induced hypoglutamatergic states. In this study the NMDA antagonist MK-801 (0.7 mg/kg i.p.) was used to create a hypoglutamatergic state where the rats display abnormal, hyperactive behaviour.
Behavioural activity is measured using eight Digiscan activity monitors (RXYZM (16) TAO, Omnitech Electronics, Columbus, Ohio, USA), connected to an Omnitech Digiscan analyzer and an Apple Macintosh computer equipped with a digital interface board (NB DIO-24, National Instruments, USA). […]
Behavioural data from each activity monitor, representing the position (horizontal center of gravity and vertical activity) of the animal at each time, are recorded at a sampling frequency of 25 Hz and collected using a custom written LABView™ application. The data from each recording session are stored and analyzed with respect to distance traveled. […]

Arc gene expression = experiment: Increase of Arc gene expression (Arc mRNA, real-time PCR) in rat striatum and cortex; assay type: in vivo; settings: estimated ED50 on increase of Arc gene expression
Description: To investigate potential effects of compounds of the present invention on cortical and striatal NMDA receptor related synaptic signalling, Arc mRNA induction was assessed upon acute administration of a compound of the present invention. […]
Total RNA is prepared by the guanidin isothiocyanate method reported by Chomczynski & Sacchi [Chomczynski P & Sacchi N; Anal. Biochem. 1987 162 156-159]. […] The sample concentration was determined spectrophotometrically by a NanoDrop ND-1000. A quality indicator number and an integrity number of r-RNA were measured with an Experion (Bio-Rad) on random samples. […]
For real-time PCR measurements, 0.7 μl of the cDNA reaction was amplified in a 25 μl reaction mixture containing 1×PCR buffer, 0.2 mM dNTP, 3.7 mM MgCl2, 0.15 mM SYBR green, 0.4 μM of each primer, and 1U JumpStart Taq DNA polymerase. Real-time PCR was measured on CFX96 (Biorad) using the following settings for all genes, 60 s pre-incubation at 95° C., followed by 40 cycles of denaturation at 95° C. for 10 s, annealing at 56° C. for 10 s, and elongation at 72° C. for 10 s.
Initial DNA amounts were quantified by a standard curve constructed for every gene using 6 serial 4-fold dilutions of purified PCR products. […]
Arc gene amounts were normalised using the geometric mean of the amounts of the two house-keeping genes assessed (HPRT and cyclophilin A). […]

For `CCCNCCOc1cc(F)cc(S(C)(=O)=O)c1` [Example 1, N-[2-(3-fluoro-5-methylsulfonyl-phenoxy)ethyl]propan-1-amine], the ED50 (MK-801 pre-treated rats) was 5.6 µmol/kg, the ED50 (Arc gene expression; rat (prefrontal) cortex, evaluated to be below the lowest dose) was less than 11 µmol/kg and the ED50 (Arc gene expression; sc, rat striatum, systemic administration, 0-100 μmol/kg s.c.) was 13 µmol/kg.

From patent US9120728B2, “Modulators of cortical dopaminergic- and NMDA-receptor-mediated glutamatergic neurotransmission” (INTEGRATIVE RESEARCH LABORATORIES SWEDEN AB, priority 2011, dated 2015)
